Experimental data: patent publication US20100267697A1, “ION CHANNEL MODULATORS” (Wyeth, priority 2006, published 2010)
Where two headings read alike, the source gives them in different places.

What was measured:
Cav2.2 [1] = molecular target: Cav2.2 (UniProt Q02294); test: Oocyte assay (Xenopus oocyte heterologous expression, current at fifth pulse P5); format: cell-based; conditions: Xenopus oocytes; fifth pulse (P5) of 5 Hz train, holding potential −100 mV
Protocol: The assay was performed on various calcium channels (e.g., Cav2.2 subfamily) whereby the modulation of the calcium channel was measured for each tested compound.

Cav2.2 [2] = molecular target: T1, Cav2.2 (Homo sapiens, UniProt Q00975); test: HEK assay (whole-cell patch clamp, transiently transfected HEK-293T/17 cells, pulses P1 and P5); format: cell-based; conditions: holding potential −100 mV
T1 construct: expressed in transfected cells; host or cells: HEK-293T/17 (transient, FuGENE 6)
Summary of the method: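 Whole-cell voltage clamp of HEK-293T/17 cells transiently transfected via FuGENE 6, then grown 24 h in 1% serum before recording. From −100 mV holding, trains of five 20–30 ms steps to about +10 mV at 5 Hz, repeated every 30 s; steady-state IC50s taken at first (P1) and fifth (P5) pulses to gauge use-dependent block.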

[3] = fifth pulse (P5) of 5 Hz train, read-out: HEK Cav2.2 P5 IC50
[4] = first pulse (P1) of 5 Hz train, read-out: HEK Cav2.2 P1 IC50

T1 sequence (Q00975 whole entry): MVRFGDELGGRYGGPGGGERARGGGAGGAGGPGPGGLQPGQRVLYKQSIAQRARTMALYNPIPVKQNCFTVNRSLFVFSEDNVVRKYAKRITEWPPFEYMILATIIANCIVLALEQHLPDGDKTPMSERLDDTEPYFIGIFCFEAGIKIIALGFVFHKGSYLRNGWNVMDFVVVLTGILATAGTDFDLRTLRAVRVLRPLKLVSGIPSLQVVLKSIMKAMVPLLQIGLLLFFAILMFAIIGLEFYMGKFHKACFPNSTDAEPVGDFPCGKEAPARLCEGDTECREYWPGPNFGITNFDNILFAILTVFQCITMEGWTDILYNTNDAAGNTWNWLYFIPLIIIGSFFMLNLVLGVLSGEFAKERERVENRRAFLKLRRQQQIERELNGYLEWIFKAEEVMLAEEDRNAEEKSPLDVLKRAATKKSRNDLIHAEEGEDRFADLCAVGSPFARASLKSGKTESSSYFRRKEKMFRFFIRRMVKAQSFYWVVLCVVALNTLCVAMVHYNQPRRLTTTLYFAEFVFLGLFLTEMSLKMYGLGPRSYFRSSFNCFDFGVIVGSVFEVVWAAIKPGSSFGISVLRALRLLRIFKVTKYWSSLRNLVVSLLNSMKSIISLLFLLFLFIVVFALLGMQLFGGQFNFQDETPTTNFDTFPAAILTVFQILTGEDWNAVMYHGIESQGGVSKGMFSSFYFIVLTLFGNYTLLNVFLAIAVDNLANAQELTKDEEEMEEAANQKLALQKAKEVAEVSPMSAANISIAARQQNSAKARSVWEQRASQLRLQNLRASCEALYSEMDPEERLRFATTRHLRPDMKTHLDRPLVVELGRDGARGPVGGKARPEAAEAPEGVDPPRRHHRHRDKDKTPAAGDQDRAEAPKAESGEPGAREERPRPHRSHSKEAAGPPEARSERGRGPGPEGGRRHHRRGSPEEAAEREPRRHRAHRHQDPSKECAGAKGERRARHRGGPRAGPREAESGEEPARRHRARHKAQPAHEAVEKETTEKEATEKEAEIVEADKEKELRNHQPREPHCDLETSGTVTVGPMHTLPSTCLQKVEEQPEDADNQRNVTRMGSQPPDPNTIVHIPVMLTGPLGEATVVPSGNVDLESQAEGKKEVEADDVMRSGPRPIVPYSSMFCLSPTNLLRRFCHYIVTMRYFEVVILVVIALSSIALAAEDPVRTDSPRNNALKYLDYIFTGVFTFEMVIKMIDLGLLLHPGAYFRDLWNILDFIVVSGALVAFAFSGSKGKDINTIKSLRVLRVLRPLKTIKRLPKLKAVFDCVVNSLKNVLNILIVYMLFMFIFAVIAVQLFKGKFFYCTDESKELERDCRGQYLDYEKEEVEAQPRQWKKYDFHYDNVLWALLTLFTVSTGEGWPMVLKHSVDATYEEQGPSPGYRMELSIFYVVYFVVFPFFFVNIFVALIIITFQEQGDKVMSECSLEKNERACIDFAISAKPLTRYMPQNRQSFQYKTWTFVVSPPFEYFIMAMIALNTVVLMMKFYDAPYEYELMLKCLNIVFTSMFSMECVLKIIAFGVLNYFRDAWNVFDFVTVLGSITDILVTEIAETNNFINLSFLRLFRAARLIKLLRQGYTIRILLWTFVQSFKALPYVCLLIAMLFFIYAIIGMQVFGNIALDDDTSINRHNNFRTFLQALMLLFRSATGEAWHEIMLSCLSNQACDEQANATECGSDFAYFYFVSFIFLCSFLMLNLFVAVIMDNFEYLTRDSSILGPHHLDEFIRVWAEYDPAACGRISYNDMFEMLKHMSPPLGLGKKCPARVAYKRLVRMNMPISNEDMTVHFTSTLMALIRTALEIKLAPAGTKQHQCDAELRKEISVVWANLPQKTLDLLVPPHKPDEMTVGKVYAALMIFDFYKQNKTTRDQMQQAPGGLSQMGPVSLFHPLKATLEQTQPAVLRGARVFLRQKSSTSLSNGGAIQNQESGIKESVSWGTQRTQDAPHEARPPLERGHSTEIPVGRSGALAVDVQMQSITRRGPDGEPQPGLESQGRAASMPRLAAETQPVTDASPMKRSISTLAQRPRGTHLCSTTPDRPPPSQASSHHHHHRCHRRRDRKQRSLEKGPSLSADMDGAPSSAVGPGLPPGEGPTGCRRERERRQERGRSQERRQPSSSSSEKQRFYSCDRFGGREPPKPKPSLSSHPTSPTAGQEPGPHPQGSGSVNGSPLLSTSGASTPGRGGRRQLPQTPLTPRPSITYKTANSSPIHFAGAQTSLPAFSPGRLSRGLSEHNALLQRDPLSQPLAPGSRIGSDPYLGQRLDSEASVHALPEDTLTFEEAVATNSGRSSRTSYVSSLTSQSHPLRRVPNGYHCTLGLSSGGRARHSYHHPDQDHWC
T1 sequence (P54284 whole entry partner): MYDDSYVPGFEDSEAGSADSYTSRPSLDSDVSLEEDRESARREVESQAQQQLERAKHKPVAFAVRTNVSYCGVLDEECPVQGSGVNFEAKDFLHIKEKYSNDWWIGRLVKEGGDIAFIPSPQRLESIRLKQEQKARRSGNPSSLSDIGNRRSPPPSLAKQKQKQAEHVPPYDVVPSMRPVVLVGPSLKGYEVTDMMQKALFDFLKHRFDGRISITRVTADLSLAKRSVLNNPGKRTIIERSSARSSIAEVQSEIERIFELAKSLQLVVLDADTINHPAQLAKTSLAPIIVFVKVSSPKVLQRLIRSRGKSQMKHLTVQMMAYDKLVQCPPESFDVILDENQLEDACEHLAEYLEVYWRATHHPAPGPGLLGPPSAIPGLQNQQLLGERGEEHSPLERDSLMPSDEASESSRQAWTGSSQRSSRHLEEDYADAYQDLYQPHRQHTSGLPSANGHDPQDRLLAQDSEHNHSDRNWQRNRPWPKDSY
T1 sequence (P54289 25-946 partner limits assumed): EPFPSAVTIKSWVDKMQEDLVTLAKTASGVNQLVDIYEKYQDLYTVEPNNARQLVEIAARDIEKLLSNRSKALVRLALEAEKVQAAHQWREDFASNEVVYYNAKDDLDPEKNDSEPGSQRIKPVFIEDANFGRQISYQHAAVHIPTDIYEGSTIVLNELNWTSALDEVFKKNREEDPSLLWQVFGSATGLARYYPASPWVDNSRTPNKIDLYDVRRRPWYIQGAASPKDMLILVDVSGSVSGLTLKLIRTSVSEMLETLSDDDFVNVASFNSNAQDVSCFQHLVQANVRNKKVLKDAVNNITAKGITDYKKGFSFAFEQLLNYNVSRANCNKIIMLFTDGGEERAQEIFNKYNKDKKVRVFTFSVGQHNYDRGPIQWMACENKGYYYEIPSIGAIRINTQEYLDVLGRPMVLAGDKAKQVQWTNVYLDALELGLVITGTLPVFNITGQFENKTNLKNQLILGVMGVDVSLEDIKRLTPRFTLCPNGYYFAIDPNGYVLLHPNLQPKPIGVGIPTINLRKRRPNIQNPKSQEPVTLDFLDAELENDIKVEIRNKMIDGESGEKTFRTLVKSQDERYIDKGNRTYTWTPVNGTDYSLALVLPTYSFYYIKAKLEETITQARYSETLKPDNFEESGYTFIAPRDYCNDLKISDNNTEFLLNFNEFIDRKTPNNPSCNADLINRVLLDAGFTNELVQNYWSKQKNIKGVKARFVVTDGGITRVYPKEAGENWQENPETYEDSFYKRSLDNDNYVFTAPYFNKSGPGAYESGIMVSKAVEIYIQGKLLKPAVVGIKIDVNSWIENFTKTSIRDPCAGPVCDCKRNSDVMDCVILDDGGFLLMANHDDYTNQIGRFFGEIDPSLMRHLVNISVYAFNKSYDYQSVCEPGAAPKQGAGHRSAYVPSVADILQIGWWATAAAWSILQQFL
T1 sequence (P54289 947-1103 partner limits assumed): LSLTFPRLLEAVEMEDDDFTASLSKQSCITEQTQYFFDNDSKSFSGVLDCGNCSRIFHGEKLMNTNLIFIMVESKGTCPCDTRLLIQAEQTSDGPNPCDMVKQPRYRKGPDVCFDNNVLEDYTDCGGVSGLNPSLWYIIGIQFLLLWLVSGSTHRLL

IC50 (Cav2.2 [1]) | IC50 (Cav2.2 [2]; [3]) | IC50 (Cav2.2 [2]; [4]) | Structure (SMILES)
15.6 µM | 1.2 µM | 4.3 µM | CCN(CC)c1ncc(CN(C(=O)C(C)(C)C)c2ccc(F)cc2)cn1 [Compound 84, N-(2-Diethylamino-pyrimidin-5-ylmethyl)-N-(4-fluorophenyl)-2,2-dimethyl-propionamide]
16.2 µM | 1.9 µM | 7.4 µM | CN(C)c1ccc(N(Cc2cnc(N3CCCCC3)nc2)C(=O)C(C)(C)C)cc1 [Compound 85, N-(4-Dimethylamino-phenyl)-2,2-dimethyl-N-(2-piperidin-1-yl-pyrimidin-5-ylmethyl)-propionamide]
22.8 µM | 0.4 µM | 0.8 µM | CN(c1ccccn1)c1nc(CN(C(=O)C(C)(C)C)c2ccc(F)cc2)cs1 [Compound 93, N-(4-Fluorophenyl)-2,2-dimethyl-N-[2-(methyl-pyridin-2-yl-amino)-thiazol-4-ylmethyl]-propionamide]
22 µM | 2.5 µM | 14.1 µM | CN1CCN(c2ccc(CN(C(=O)C3CCCCC3)c3ccc(F)cc3)cn2)CC1 [Compound 104, Cyclohexanecarboxylic acid (4-fluorophenyl)-[6-(4-methyl-piperazin-1-yl)-pyridin-3-ylmethyl]-amide]
23.2 µM | 2.1 µM | 18.6 µM | O=C(C1CCOC1)N(Cc1ccc(N2CCN(c3ccccn3)CC2)nc1)c1ccc(F)cc1 (stereo not drawn) [Compound 111, Tetrahydro-furan-3-carboxylic acid (4-fluorophenyl)-[6-(4-pyridin-2-yl-piperazin-1-yl)-pyridin-3-ylmethyl]-amide]
